Patent US9957273B2, “5-substituted 7- [4-(2-pyridyl)phenylmethylamino] -3-isopropylpyrazolo4,3-D]pyrimidine derivatives, use thereof as medicaments, and pharmaceutical compositions” (USTAV EXPERIMENTALNI BOTANIKY AV CR, V.V.I., priority 2015, dated 2018)
Read-outs that look alike come from different tables or passages of the source.

What was measured:
[1] = tested on: K562 (human chronic myelogenous leukaemia); assay: MTT cytotoxicity assay, leukemic cell line K562; assay type: cell-based; details: three days
Source text: (§1) Cytotoxicity of the compounds is the major property determining their antileukemic efficacy in vivo. One of the parameters used, as the basis for cytotoxicity assays, is the metabolic activity of viable cells. For example, a microtiter assay, which uses (3-(4,5-dimethylthiazol-2-yl)-2,5-diphenyltetrazolium bromide (MTT), is widely used to quantitate cell proliferation and cytotoxicity. This assay is widely used in drug screening programs and in chemosensitivity testing. Because only metabolically active living cells reduce MTT to correspond purple formazan dye, these assays detect viable cells exclusively. The quantity of reduced MTT corresponds to the number of vital cells in the culture.
(§2) The compounds were assayed using the following leukemic cell lines: K562 (human chronic myelogenous leukaemia), HL60 (human promyelocytic leukaemia), CEM (human lymphoblastoid leukaemia), THP1 (human monocytic cell line), MV4; 11 (acute myelocytic leukemia). All cell lines were grown in RPMI medium supplemented with fetal bovine serum and L-glutamine and maintained at 37° C. in a humidified atmosphere with 5% CO2. For cytotoxicity assays, 2000-5000 cells were seeded into each well of 96 well plate, allowed to stabilize for at least 8 h and then tested compounds were added at various concentrations ranging from 100 to 0.01 μM in triplicates. After three days, MTT solution (5 mg/ml; Sigma, St. Louis, USA) was added to cells and medium was replaced with DMSO after five hours. The absorbance was measured at 620 nm by employing a microplate reader. MTT assays were repeated 3 times for each drug application and untreated cells were used as reference.

[2] = tested on: HL60 (human promyelocytic leukaemia); assay: MTT cytotoxicity assay, leukemic cell line HL60; assay type: cell-based; details: three days
Source text: as §1, §2

[3] = tested on: CEM (human lymphoblastoid leukaemia); assay: MTT cytotoxicity assay, leukemic cell line CEM; assay type: cell-based; details: three days
Source text: as §1, §2

[4] = tested on: THP1 (human monocytic cell line); assay: MTT cytotoxicity assay, leukemic cell line THP1; assay type: cell-based; details: three days
Source text: as §1, §2

[5] = tested on: MV4;11 (acute myelocytic leukemia); assay: MTT cytotoxicity assay, leukemic cell line MV4;11; assay type: cell-based; details: three days
Source text: as §1, §2

[6] = tested on: G361 (malignant melanoma); assay: MTT cytotoxicity assay, solid cancer cell line G361; assay type: cell-based; details: Homo sapiens, G-361, 72 h, three days
Experimental: as §2, with “following” for “following leukemic”, “G361 (malignant melanoma), MCF7 (breast adenocarcinoma), PLC/PRF/5 (liver hepatoma), PANC-1 (pancreatic carcinoma) and HCT116 (colon carcinoma).” for “K562 (human chronic myelogenous leukaemia), HL60 (human promyelocytic leukaemia), CEM (human lymphoblastoid leukaemia), THP1 (human monocytic cell line), MV4; 11 (acute myelocytic leukemia).”, “DMEM” for “RPMI”, “4000-10000” for “2000-5000”, “of a” for “of”, “16” for “8”

[7] = tested on: MCF7 (breast adenocarcinoma); assay: MTT cytotoxicity assay, solid cancer cell line MCF7; assay type: cell-based; details: Homo sapiens, MCF7, 72 h, three days
Experimental: as §2, with “following” for “following leukemic”, “G361 (malignant melanoma), MCF7 (breast adenocarcinoma), PLC/PRF/5 (liver hepatoma), PANC-1 (pancreatic carcinoma) and HCT116 (colon carcinoma).” for “K562 (human chronic myelogenous leukaemia), HL60 (human promyelocytic leukaemia), CEM (human lymphoblastoid leukaemia), THP1 (human monocytic cell line), MV4; 11 (acute myelocytic leukemia).”, “DMEM” for “RPMI”, “4000-10000” for “2000-5000”, “of a” for “of”, “16” for “8”

[8] = tested on: PLC/PRF/5 (liver hepatoma); assay: MTT cytotoxicity assay, solid cancer cell line PLC/PRF/5; assay type: cell-based; details: Homo sapiens, PLC-PRF-5, 72 h, three days
Experimental: as §2, with “following” for “following leukemic”, “G361 (malignant melanoma), MCF7 (breast adenocarcinoma), PLC/PRF/5 (liver hepatoma), PANC-1 (pancreatic carcinoma) and HCT116 (colon carcinoma).” for “K562 (human chronic myelogenous leukaemia), HL60 (human promyelocytic leukaemia), CEM (human lymphoblastoid leukaemia), THP1 (human monocytic cell line), MV4; 11 (acute myelocytic leukemia).”, “DMEM” for “RPMI”, “4000-10000” for “2000-5000”, “of a” for “of”, “16” for “8”

[9] = tested on: PANC-1 (pancreatic carcinoma); assay: MTT cytotoxicity assay, solid cancer cell line PANC-1; assay type: cell-based; details: Homo sapiens, PANC-1, 72 h, three days
Experimental: as §2, with “following” for “following leukemic”, “G361 (malignant melanoma), MCF7 (breast adenocarcinoma), PLC/PRF/5 (liver hepatoma), PANC-1 (pancreatic carcinoma) and HCT116 (colon carcinoma).” for “K562 (human chronic myelogenous leukaemia), HL60 (human promyelocytic leukaemia), CEM (human lymphoblastoid leukaemia), THP1 (human monocytic cell line), MV4; 11 (acute myelocytic leukemia).”, “DMEM” for “RPMI”, “4000-10000” for “2000-5000”, “of a” for “of”, “16” for “8”

[10] = tested on: HCT116 (colon carcinoma); assay: MTT cytotoxicity assay, solid cancer cell line HCT116; assay type: cell-based; details: Homo sapiens, HCT-116, 72 h, three days
Experimental: as §2, with “following” for “following leukemic”, “G361 (malignant melanoma), MCF7 (breast adenocarcinoma), PLC/PRF/5 (liver hepatoma), PANC-1 (pancreatic carcinoma) and HCT116 (colon carcinoma).” for “K562 (human chronic myelogenous leukaemia), HL60 (human promyelocytic leukaemia), CEM (human lymphoblastoid leukaemia), THP1 (human monocytic cell line), MV4; 11 (acute myelocytic leukemia).”, “DMEM” for “RPMI”, “4000-10000” for “2000-5000”, “of a” for “of”, “16” for “8”

[11] = target: T1, CDK2/Cyclin E (Homo sapiens, UniProt P24941); assay: CDK2/Cyclin E kinase inhibition (33P-ATP, histone H1); assay type: biochemical; details: 15 μM ATP
T1 construct: made in house; host or cells: Sf9 insect cells (baculovirus)
Experimental: CDK2/Cyclin E kinase was produced in Sf9 insect cells via baculoviral infection and purified on a NiNTA column (Qiagen). The kinase reactions were assayed with 1 mg/mL histone H1 in the presence of 15 μM ATP, 0.05 μCi [γ-^33P]ATP and of the test compound in a final volume of 10 μL, all in a reaction buffer (60 mM HEPES-NaOH, pH 7.5, 3 mM MgCl2, 3 mM MnCl2, 3 μM Na-orthovanadate, 1.2 mM DTT, 2.5 μg/50 μl PEG20.000). CDK5/p35 was purchased from ProQinase GmbH. The kinase reactions were assayed with 1 mg/mL histone H1 in the presence of 0.15 μM ATP, 0.05 μCi [γ-^33P]ATP and of the test compound in a final volume of 10 μL, all in a reaction buffer (60 mM HEPES-NaOH, pH 7.5, 3 mM MgCl2, 3 mM MnCl2, 3 μM Na-orthovanadate, 1.2 mM DTT, 2.5 μg/50 μl PEG20.000).
(§3) The reactions were stopped by adding 5 μL of 3% aq H3PO4. Aliquots were spotted onto P-81 phosphocellulose (Whatman), washed 3× with 0.5% aq H3PO4 and finally air-dried.

[12] = target: T2, CDK5/p35 (Homo sapiens, UniProt Q00535); assay: CDK5/p35 kinase inhibition (33P-ATP, histone H1); assay type: biochemical; details: 0.15 μM ATP
T2 construct: purchased ProQinase GmbH
T2 sequence (Q00535 whole entry): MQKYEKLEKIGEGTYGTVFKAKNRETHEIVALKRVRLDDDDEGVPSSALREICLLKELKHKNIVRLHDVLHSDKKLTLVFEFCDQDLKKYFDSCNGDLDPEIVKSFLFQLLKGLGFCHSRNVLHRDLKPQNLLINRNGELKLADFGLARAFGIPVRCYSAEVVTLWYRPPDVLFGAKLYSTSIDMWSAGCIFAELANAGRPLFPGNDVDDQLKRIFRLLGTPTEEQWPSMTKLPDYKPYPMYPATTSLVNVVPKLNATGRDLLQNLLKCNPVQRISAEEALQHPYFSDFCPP
T2 sequence (Q15078 whole entry partner): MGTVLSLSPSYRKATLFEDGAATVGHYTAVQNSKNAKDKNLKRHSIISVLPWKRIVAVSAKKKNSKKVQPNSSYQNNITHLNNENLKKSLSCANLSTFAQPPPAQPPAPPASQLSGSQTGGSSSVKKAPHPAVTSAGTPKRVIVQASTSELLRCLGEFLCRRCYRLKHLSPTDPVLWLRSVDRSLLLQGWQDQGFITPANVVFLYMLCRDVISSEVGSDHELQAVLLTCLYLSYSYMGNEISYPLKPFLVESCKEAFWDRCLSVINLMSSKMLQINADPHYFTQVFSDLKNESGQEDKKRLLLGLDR
Experimental: CDK2/Cyclin E kinase was produced in Sf9 insect cells via baculoviral infection and purified on a NiNTA column (Qiagen). […] CDK5/p35 was purchased from ProQinase GmbH.
as §3

[13] = tested on: HUVECs (human umbilical vein endothelial cells); assay: HUVEC proliferation assay (crystal violet); assay type: cell-based; details: 72 h, read-out: Inhibition of proliferation (EC50)
Experimental: To verify that novel compounds have anti-vascularisation properties, we analyzed their influence on the proliferation and migration of HUVECs. HUVECs (human umbilical vein endothelial cells) were purchased from Promocell (Heidelberg, Germany) and cultured in endothelial cell growth medium (ECGM, Promocell, Heidelberg, Germany) containing 10% FCS (Biochrom, Berlin, Germany). Experiments were performed using cells at passage 3.
For proliferation assay, 1.5×10^3 HUVECs were cultured for 24 h. Afterwards, cells were either left untreated or treated with novel compounds for 72 h. Proliferation assay was performed using crystal violet as described previously (Koltermann et al. 2007, Cell Mol. Life Sci. 64:1715-1722).

| SMILES | IC50 ([1]; Homo sapiens, K562, 72 h) [µM] | IC50 ([2]; Homo sapiens, HL-60, 72 h) [µM] | IC50 ([3]; Homo sapiens, 72 h) [µM] | IC50 ([4]; Homo sapiens, THP-1, 72 h) [µM] | IC50 ([5]; Homo sapiens, MV4-11, 72 h) [µM] | IC50 [6] [µM] | IC50 [7] [µM] | IC50 [8] [µM] | IC50 [9] [µM] | IC50 [10] [µM] | IC50 [11] [µM] | IC50 [12] [µM] | EC50 ([13]; Homo sapiens, HUVEC) [nM] | EC50 [13] [nM] | IC50 [1] [µM] | IC50 [2] [µM] | IC50 [3] [µM] | IC50 [4] [µM] | IC50 [5] [µM] |
| --- | --- | --- | --- | --- | --- | --- | --- | --- | --- | --- | --- | --- | --- | --- | --- | --- | --- | --- | --- |
| CC(C)c1n[nH]c2c(NCc3ccc(-c4ccccn4)cc3)nc(N[C@@H]3CCCC[C@H]3N)nc12 (relative stereo) [Compound 64] | 0.1 | 0.09 | 0.05 | 0.04 | 0.09 | 0.15 | 0.22 | 0.14 | 0.08 | 0.34 | 0.046 | 0.088 |  |  |  |  |  |  |  |
| CC(C)c1n[nH]c2c(NCc3ccc(-c4ccccn4)cc3)ncnc12 [Compound 2] |  | 0.92 | 0.8 | 0.56 | 0.47 | 0.78 |  | 0.97 | 0.46 | 1.2 |  | 0.183 |  |  |  |  |  |  |  |
| CSc1nc(NCc2ccc(-c3ccccn3)cc2)c2[nH]nc(C(C)C)c2n1 [Compound 5] | 0.78 | 0.86 | 0.94 | 0.32 | 0.6 | 0.24 | 0.81 | 0.7 | 0.65 | 1.3 |  | 0.229 | 234 |  |  |  |  |  |  |
| CC(C)c1n[nH]c2c(NCc3ccc(-c4ccccn4)cc3)nc(S(C)(=O)=O)nc12 [Compound 8, 3-Isopropyl-5-methylsulfonyl-7-[4-(2-pyridyl)benzyl]amino-1(2)H-pyrazolo[4,3-d]pyridine] |  |  |  |  |  |  |  |  |  |  |  |  |  | 569 |  |  |  |  |  |
| CC(C)c1[nH]nc2c(NCc3ccc(-c4ccccn4)cc3)nc(N3CCOCC3)nc12 [Compound 9] | 0.11 | 0.1 | 0.07 | 0.18 | 0.36 | 0.25 | 0.16 | 0.21 | 0.3 | 0.42 |  | 0.005 | 136 |  |  |  |  |  |  |
| CC(C)c1[nH]nc2c(NCc3ccc(-c4ccccn4)cc3)nc(N3CCCCC3)nc12 [Compound 14] |  |  |  |  |  |  |  |  |  |  | 0.042 | 0.18 |  |  |  |  |  |  |  |
| CC(C)c1[nH]nc2c(NCc3ccc(-c4ccccn4)cc3)nc(N3CCN(CCO)CC3)nc12 [Compound 17] | 0.15 | 0.26 | 0.11 | 0.3 | 0.37 | 0.24 | 0.19 | 0.73 | 0.34 | 0.4 |  | 0.422 | 95 |  |  |  |  |  |  |
| CC(C)c1[nH]nc2c(NCc3ccc(-c4ccccn4)cc3)nc(NCCCO)nc12 [Compound 29] | 0.1 | 0.18 | 0.09 | 0.14 | 0.27 |  |  |  |  |  | 0.039 | 0.0149 |  |  |  |  |  |  |  |
| CC(C)c1n[nH]c2c(NCc3ccc(-c4ccccn4)cc3)nc(N[C@H](C)CCO)nc12 [Compound 31] |  |  |  |  |  |  |  |  |  |  |  |  |  |  | 0.39 | 0.24 | 0.21 | 0.26 | 0.31 |
